Results as given in patent US6184246A, “Inhibition of cytokine production by polymethoxylated flavones” (priority 1999, dated 2001).
Entries after “also recorded” stand apart in the source; their conditions may differ. Where two headings read alike, the source gives them in different places.

Legend:
[1] = system: TNFα; assay: TNFα production by LPS-stimulated human monocytes (ELISA); assay type: cell-based; settings: for inhibition of TNFα production (in words): LPS-stimulated human monocytes; for IC50: read-out: IC50 for inhibition of TNFα production
Method: Isolation of human peripheral blood monocytes: Peripheral blood mononuclear cells (PBMCs) were isolated from residual source leukocytes (Bonfils Blood Center, CO) by density gradient centrifugation using Ficoll-Paque Plus (Pharmacia, Sweden).
(§1) To measure the impact of the flavones on cytokine production, PBMCs were resuspended to 4×10^6 /mL in complete medium, i.e., Dulbecco's Modified Eagle Medium containing 30% FCS, 2 mM glutamine, 100 U/mL Penicillin-G, and 100 μg/mL streptomycin. […] Nonadherent cells (lymphocytes) were separated from the plastic adherent cells (monocytes) by washing the wells twice with 200 μL of medium. The monocytes were cultured an additional 30 min in 100 μL of complete medium containing graded concentrations of the compound of interest and the cultures were then adjusted to contain […] LPS to stimulate cytokine production. Culture supernatants were harvested 14 h later, and cells were lysed by addition of 50 μL of Dulbecco's phosphate buffered saline containing 1% NP40. Culture supernatants were evaluated for TNFα, IL-1β, IL-6, IL-8, IL-10, and MIP-1α content using specific enzyme-linked immunosorbent assays (ELISA) purchased from R&D Systems. IL-1β was measured in cell lysates by ELISA. Lactate dehydrogenase (LDH) content of cell lysates was measured to determine compound effects on cell viability: To 50 μL of lysate were added 200 μL of 50 mM sodium pyrophosphate buffer (pH 8.9) containing 50 mM lactic acid and 4 mg/mL β-nicotinamide adenine dinucleotide (Sigma); rates of reduction of nicotinamide adenine dinucleotide were measured at room temperature at 340 nm.

[2] = system: human monocytes; assay: Cytotoxicity by LDH content of monocyte lysates
Method: as §1

[3] = system: intracellular cAMP; assay: Cellular cAMP in human monocytes (EIA); assay type: cell-based; settings: 30 min; for intracellular cAMP level: media alone 2.7±0.9
Method: To test flavones for the ability to cause an increase in cellular cAMP, monocytes were purified from PBMC by centrifugal elutriation. Monocytes were resuspended to 5×10^6 /mL in complete medium and 2 mL cell suspension were dispensed into FALCON 17×100 mm polypropylene culture tubes (Becton Dickinson). The cells were precultured 2 h at 37° C. and 5% CO2, and then cultured an additional 30 min following adjusting culture media to contain 100 μM of the flavone of interest or 200 μM IBMX (3-isobutyl-1-methylxanthine). Cells were then collected by centrifugation, lysed in 300 μL of ice cold aqueous solution containing 10 mM HEPES (pH 7.6) and 1% NP40. The lysates were applied to 100 mg columns of Amprep SAX resin (Amersham). The columns were then rinsed with 1 mL of methanol and the cAMP was eluted in 600 μL of methanol containing 0.01 M HCl. The eluates were chilled on dry ice and dried under vacuum. The Amersham Biotrak cAMP EIA assay was used to measure cAMP content of residues resuspended in 400 μL of assay buffer.

[4] = system: IL-10; assay: IL-10 production by LPS-stimulated human monocytes (ELISA); assay type: cell-based; settings: LPS-stimulated human monocytes
Method: (§2) Adherent purified human monocytes were cultured in the presence of graded concentrations of heptamethoxyflavone for 30 min. The monocyte cultures were then adjusted to contain 20 ng/mL LPS. After 14 h of culture, the cytokines TNFα, IL-6, IL-8, MIP-1α, and IL-10 were assayed in the culture supernatants and IL-1β was assayed in the cell lysates using specific ELISA assays as described below. Values expressed as the percent of cytokine produced in flavone-free cultures are the means and standard errors determined using monocytes isolated from three independent donors.
(§3) Isolation of human peripheral blood monocytes: Peripheral blood mononuclear cells (PBMCs) were isolated from residual source leukocytes (Bonfils Blood Center, CO) by density gradient centrifugation using Ficoll-Paque Plus (Pharmacia, Sweden). Monocytes were purified further by plastic adherence (see below) or by centrifugal elutriation as described previously (Manthey, C. L., et al., J. Leuk Biol., 64: 409-416 (1998)).
(§4) IL-1β was measured in cell lysates by ELISA.

[5] = system: IL-8; assay: IL-8 production by LPS-stimulated human monocytes (ELISA); assay type: cell-based; settings: cytokine suppression profile, HMF compared against IBMX (Table 2)
Method: as §2, §3, §4

[6] = system: IL-1β; assay: IL-1β production by LPS-stimulated human monocytes (ELISA, cell lysates); assay type: cell-based; settings: cytokine suppression profile, HMF compared against IBMX (Table 2)
Method: as §2, §3, §4

[7] = system: IL-6; assay: IL-6 production by LPS-stimulated human monocytes (ELISA); assay type: cell-based; settings: cytokine suppression profile, HMF compared against IBMX (Table 2)
Method: as §2, §3, §4

[8] = system: type-IV phosphodiesterase semi-purified from U937 cells; assay: Phosphodiesterase cAMP SPA enzyme assay; assay type: biochemical; settings: hydrolysis of cAMP; read-out: concentration inhibiting phosphodiesterase activity 50%
Method: PDE semipurified from U937 monocytic cells was evaluated for the ability to catalyze the hydrolysis of cAMP in the presence of graded concentrations of flavone, myricetin, and HMF as described below. The rates are plotted as percent of control-reactions, where no flavonoids were present. Testing flavones as phosphodiesterase inhibitors and inducers of cellular cyclic adenosine monophosphate (cAMP): The Phosphodiesterase cAMP SPA Enzyme Assay (Amersham, Arlington Heights, Ill.) was used to test the ability of flavones to inhibit cAMP hydrolysis catalyzed by phosphodiesterase. The phosphodiesterase used in this study was semi-purified from U937 cells, and was determined to be mostly the type-IV isoform based on sensitivity to selected isoform inhibitors (Trophy, T. J., J. Pharmacol. Experimental Therapeutics, 1195-1205 (1992)).

[9] = system: TNFα; settings: mice, cited from earlier work
[10] = human monocytes, LDH content of cell lysates
[11] = Monocyte, human monocytes, 30 min preculture with compound, LPS, 14 h, 30% FCS
[12] = human monocytes, 30 min preculture with compound, LPS, 14 h, 30% FCS

Molecule	inhibition of TNFα production (in words) [1]	cytotoxicity towards cultured human monocytes (depletion of cellular LDH activity) [2]	cytotoxicity towards cultured human monocytes (depletion of cellular LDH activity) [2, 10]	further results
O=c1c(O)c(-c2ccc(O)cc2)oc2cc(O)ccc12 [3,4,7-trihydroxyflavone]	lacked activity	lacked activity and any associated cytotoxicity	–	–
O=c1c(O)c(-c2ccccc2)oc2ccccc12 [3-hydroxyflavone]	lacked activity	lacked activity and any associated cytotoxicity	–	–
O=c1cc(-c2ccc(O)cc2)oc2ccc(O)c(O)c12 [4,5,6-trihydroxyflavone]	lacked activity	lacked activity and any associated cytotoxicity	–	–
O=c1cc(-c2ccccc2)oc2cc(O)ccc12 [7-hydroxyflavone]	lacked activity	–	lacked activity and any associated cytotoxicity	–
CC(C)Cn1c(=O)n(C)c(=O)c2[nH]cnc21 [IBMX, 3-isobutyl-1-methylxanthine]	–	–	–	increase of monocyte cAMP levels over media alone (in words) ([3]; 200 μM): at least a doubling; intracellular cAMP level ([3]; 200 μM): 8.3±1.9 pmol/10^7 cells; inhibition of IL-10 production (in words) [4]: did not inhibit; suppression of IL-8 production [5]: neither suppressed; suppression of IL-1β production [6]: neither suppressed; suppression of IL-6 production [7]: neither suppressed
O=c1cc(-c2ccccc2)oc2cc(O)c(O)c(O)c12 [baicalein]	lacked activity	lacked activity and any associated cytotoxicity	–	–
Oc1cc(O)c2c(c1)OC(c1ccc(O)c(O)c1)C(O)C2 (centres unmarked) [catechin]	lacked activity	–	lacked activity and any associated cytotoxicity	–
O=c1cc(-c2ccccc2)oc2cc(O)cc(O)c12 [chrysin]	lacked activity	–	lacked activity and any associated cytotoxicity	–
COc1ccc(-c2cc(=O)c3c(O)cc(O[C@@H]4O[C@H](CO[C@@H]5O[C@@H](C)[C@H](O)[C@@H](O)[C@H]5O)[C@@H](O)[C@H](O)[C@H]4O)cc3o2)cc1O [diosmin]	–	–	no cytotoxicity	IC50 [1, 11]: > 200 µM
Oc1cc(O)c2c(c1)O[C@H](c1ccc(O)c(O)c1)[C@H](O)C2 [epicatechin]	lacked activity	lacked activity and any associated cytotoxicity	–	–
O=C1C[C@@H](c2ccc(O)c(O)c2)Oc2cc(O)cc(O)c21 [eriodictyol]	lacked activity	lacked activity and any associated cytotoxicity	–	–
O=c1c(O)c(-c2ccc(O)c(O)c2)oc2cc(O)ccc12 [fisetin]	lacked activity	–	lacked activity and any associated cytotoxicity	–
O=C1CC(c2ccccc2)Oc2ccccc21 (centres unmarked) [flavanone]	lacked activity	–	lacked activity and any associated cytotoxicity	–
O=c1cc(-c2ccccc2)oc2ccccc12 [flavone]	much less active	–	–	increase of monocyte cAMP levels over media alone (in words) ([3]; 100 μM): much less; intracellular cAMP level ([3]; 100 μM): 3.6±1.1 pmol/10^7 cells; IC50 [8]: 11 µM
O=c1c(O)c(-c2ccccc2)oc2cc(O)cc(O)c12 [galagin]	lacked activity	–	lacked activity and any associated cytotoxicity	–
O=c1c(O)c(-c2ccc(O)c(O)c2)oc2c(O)c(O)cc(O)c12 [gossypetin]	lacked activity	–	lacked activity and any associated cytotoxicity	–
COc1ccc([C@@H]2CC(=O)c3c(O)cc(O)cc3O2)cc1O [hesperetin]	lacked activity	lacked activity and any associated cytotoxicity	–	–
COc1ccc([C@@H]2CC(=O)c3c(O)cc(O[C@@H]4O[C@H](CO[C@@H]5O[C@@H](C)[C@H](O)[C@@H](O)[C@H]5O)[C@@H](O)[C@H](O)[C@H]4O)cc3O2)cc1O [hesperidin]	–	no cytotoxicity	–	IC50 ([1]; Homo sapiens, Monocyte): > 200 µM
O=c1cc(-c2ccc(O)cc2)oc2cc(O)c([C@@H]3O[C@H](CO)[C@@H](O)[C@H](O)[C@H]3O)c(O)c12 [isovitexin]	–	no cytotoxicity	–	IC50 [1, 11]: > 200 µM
O=c1c(O)c(-c2cc(O)c(O)c(O)c2)oc2cc(O)cc(O)c12 [myricetin]	lacked activity; also recorded: much less active	–	lacked activity and any associated cytotoxicity	increase of monocyte cAMP levels over media alone (in words) ([3]; 100 μM): much less; intracellular cAMP level ([3]; 100 μM): 3.7±1.0 pmol/10^7 cells; IC50 [8]: 16 µM
C[C@@H]1O[C@@H](O[C@H]2[C@H](Oc3cc(O)c4c(c3)O[C@H](c3ccc(O)cc3)CC4=O)O[C@H](CO)[C@@H](O)[C@@H]2O)[C@H](O)[C@H](O)[C@H]1O [naringin]	–	no cytotoxicity	–	IC50 [1, 11]: > 200 µM; liver injury ([9]; lipopolysaccharide-induced): suppress; lipopolysaccharide-induced TNFα release [9]: suppress
C[C@@H]1O[C@@H](OC[C@H]2O[C@@H](Oc3cc(O)c4c(c3)O[C@H](c3ccc(O)cc3)CC4=O)[C@H](O)[C@@H](O)[C@@H]2O)[C@H](O)[C@H](O)[C@H]1O [narirutin]	–	no cytotoxicity	–	IC50 [1, 11]: > 200 µM
CC1OC(OCC2OC(Oc3c(-c4ccc(O)cc4)oc4cc(OC5OC(C)C(O)C(O)C5O)cc(O)c4c3=O)C(O)C(O)C2O)C(O)C(O)C1O (centres unmarked) [robinin]	lacked activity	–	lacked activity and any associated cytotoxicity	–
COc1ccc(-c2cc(=O)c3c(OC)c(OC)c(OC)cc3o2)cc1 [tetra-O-methylscutellarein]	–	–	exception	–
isomargaretin	–	no cytotoxicity	–	IC50 [1, 12]: > 200 µM
margaretin	–	no cytotoxicity	–	IC50 [1, 12]: > 200 µM
